Several values for one entry are separate records, joined by “and”; a condition that tells them apart may be missing. Equal values may be shown once. No end group written: not given here.
Tests used:
[1] = test system: T2 target cells, gp100-reactive TIL 1200 lymphocytes; test: Chromium-release assay, target cell sensitization for lysis by TIL 1200; assay type: cell-based, human; settings: E:T 20:1, T2 target cells preincubated 90 min with 1 μM peptide, 5 hours
Method: Chromium release assays were performed as described previously (Bakker et al., 1994, J. Exp. Med. 179:1005). […] Various amounts of effector cells were then added to the target cells in triplicate wells of U bottomed microliter plates (Costar, Badhoevedorp, The Netherlands) in a final volume of […]. […] After 5 h of incubation, part of the supernatant was harvested and its radioactive content was measured. The mean percentage specific lysis of triplicate wells was calculated using the formula: % specific lysis=((experimental release−spontaneous release)÷(maximal release−spontaneous release))×100.

[2] = test system: T2 target cells, Melan-A/MART-1 27-35-reactive TIL 1235 lymphocytes; test: Chromium-release assay, target cell sensitization for lysis by TIL 1235; assay type: cell-based, human; settings: E:T 20:1, T2 target cells preincubated 90 min with 1 μM peptide, 5 hours
HLA-A*0201 [3] = target: T1, HLA-A*0201 (Homo sapiens, UniProt P04439, D140Y/D185E/D98H/E176V/E277Q/G131W/G231S/I119V/I121R/I166T/I218V/L300P/L318F/N151K/N90K/P208A/P217A/Q86G/Q94H/R138H/R169H/T345S); test: Competition based HLA-A*0201 peptide-binding assay on JY cells; settings: competition with Fluorescein labeled reference peptide at 4° C., mild acid treated HLA-A*0201+ B-LCL; read-out: Affinity IC50
T1 construct: Peptide-induced HLA-A*0201 upregulation on T2 cells was performed as described previously; endogenous in cells; host or cells: T2 cells (processing-defective, HLA-A*0201+)

HLA-A*0201 [4] = target: T1, HLA-A*0201; test: Peptide-induced HLA-A*0201 upregulation/stabilization on T2 cells; assay type: binding

Row | Sequence | target cell lysis by TIL 1200 (% specific lysis) [1] [%] | target cell lysis by TIL 1235 (% specific lysis) [2] | other results
1 | KTWAQYWQV | 63 | – | –
2 | KAWGQYWQV | 64 | – | –
3 | AAAIGILTV [alanine-substituted Melan-A/MART-1 27-35 analogue] | – | 13% | –
4 | KIWGQYWQV | – | – | IC50 (HLA-A*0201 [3]): 600 nM
5 | AAGIGILTA [alanine-substituted Melan-A/MART-1 27-35 analogue] | – | 26% | HLA-A*0201 stabilization (Fluorescence Index) (HLA-A*0201 [4]; 25 μM peptide): 1.03; HLA-A*0201 stabilization (Fluorescence Index) (HLA-A*0201 [4]; 50 μM peptide): 1.00
6 | KTWGQYWAV | – | – | IC50 (HLA-A*0201 [3]): 500 nM
7 | AAGAGILTV [alanine-substituted Melan-A/MART-1 27-35 analogue] | – | 0% | –
8 | ATWGQYWQV | 75 | – | –
9 | KTWGQYAQV | −2 | – | –
10 | AAGIGILAV [alanine-substituted Melan-A/MART-1 27-35 analogue] | – | 11% | –
11 | AAGIGIATV [alanine-substituted Melan-A/MART-1 27-35 analogue] | – | 6% | –
12 | ALGIGILTV [Melan-A/MART-1 27-35 N-terminal anchor-replacement analogue] | – | 16% | –
13 | KTWGQYWQA | 76 | – | –
14 | AGGIGILTV [glycine-substituted Melan-A/MART-1 27-35 analogue] | – | 6% | –
15 | GAGIGILTV [glycine-substituted Melan-A/MART-1 27-35 analogue] | – | 52% | –
16 | AVGIGILTV [Melan-A/MART-1 27-35 N-terminal anchor-replacement analogue] | – | 27% | –
17 | AAGIAILTV [alanine-substituted Melan-A/MART-1 27-35 analogue] | – | 4% | –
18 | KTAGQYWQV | 58 | – | –
19 | AAGIGALTV [alanine-substituted Melan-A/MART-1 27-35 analogue] | – | 2% | –
20 | KVWGQYWQV | – | – | IC50 (HLA-A*0201 [3]): 800 nM
21 | AMGIGILTV [Melan-A/MART-1 27-35 N-terminal anchor-replacement analogue] | – | 6% | –
22 | KMWGQYWQV | 57 | – | –
23 | YLEPGPVTA [reference compound] | 3 | −3% and −1% | –
24 | KTWGAYWQV | 9 | – | –
25 | KLWGQYWQV | – | – | IC50 (HLA-A*0201 [3]): 400 nM
26 | AIGIGILTV [Melan-A/MART-1 27-35 N-terminal anchor-replacement analogue] | – | 27% | HLA-A*0201 stabilization (Fluorescence Index) (HLA-A*0201 [4]; 25 μM peptide): 1.29; HLA-A*0201 stabilization (Fluorescence Index) (HLA-A*0201 [4]; 50 μM peptide): 1.58
27 | KTWGQAWQV | 7 | – | –
